Data reported in US20230337677A1, “ARYL AND PYRIDYL AMIDE PESTICIDES AND COMPOSITIONS THEREOF” (University of Florida Research Foundation, Incorporated, priority 2019, published 2023).
Where two headings read alike, the source gives them in different places.

Legend:
[1] = test system: Aedes aegypti mosquitoes, insecticide-susceptible Orlando strain; format: in vivo; conditions: for 1 h % Repellency, 100 μg/cm^2: screened at 100 μg/cm^2, strain not given; for vapor repellency / mortality, statement in words (Example 8): structure-activity analysis of Table 2; for 1 h Repellency EC50, μg/cm^2: (OR); for knockdown in 1 hr repellency test (XXkd = number of insects incapacitated out of 16 females): 100 μg/cm^2
Protocol: The tubes as shown were held horizontally on the bench.
For assessing behavioral repellency (FIG. 1), Aedes aegypti mosquitoes were used from the insecticide-susceptible Orlando strain and the pyrethroid-resistant Puerto Rico strain. Sixteen female mosquitoes were transferred to a glass tube (12.5 cm long, 2.5 cm outer diameter) with the ends covered with netting. Each compound was dissolved in 1 mL of acetone and serial dilutions ranging from 30-0.01 μg/ml were made. Circular filter papers (5 cm^2) were saturated with 50 μL of each concentration and allowed 10 min for solvent evaporation. The filter papers were then placed in clear conical polypropylene caps and fixed to the end of the glass tubes. The netting prevented mosquito contact with the filter paper. The tubes were then aligned with a mark denoting the midline and the proportion of mosquitoes on the chemically treated side was scored for up to 60 min. At the end of the test, the tube was placed in a cage and the ability of the mosquitoes to fly out of the tube was assessed for 30 min. […] This post-test evaluated whether any non-responding mosquitoes (not repelled) resulted from intoxication or disorientation from the test chemical. For assessment of lethality, insects were held for 24 hr under constant exposure in glass tubes having treated filter papers.
Compounds were first screened at 100 μg/cm^2 for repellency and 24 h mortality.

[2] = test system: Aedes aegypti mosquitoes, insecticide-susceptible Orlando strain; assay: whole plant or invertebrate; conditions: 24 h, read-out: 24 h % Mortality, 100 μg/cm^2
[3] = test system: Aedes aegypti mosquitoes, insecticide-susceptible Orlando strain
[4] = test system: Aedes aegypti strain Orlando (sensitive); assay: Topical toxicity (24 hour mortality), Ae. aegypti Orlando; format: in vivo; conditions: topical application, 24 h mortality, female adults, susceptible Orlando strain
Protocol: (§1) The Aedes aegypti strains Orlando (sensitive) as well as the Puerto Rico (PR, resistant to permethrin) were used. The Anopheles gambiae (G3 sensitive strain, as well as Akron kdr (Akdr) strain, resistant to pyrethroids were also assessed. The larvae were provided by the USDA, Gainesville Fl, and raised in a pan with tap water maintained at 28° C. Larvae were fed a ground liver and yeast mixture, and pupae were placed in emergence cages. Adults were held at 28° C. and provided with cotton balls soaked in 10% sugar water for rearing and for all bioassays.
(§2) Female adults from 3 to 6 days were used for the experiments. The drug was dissolved in ethanol and then applied with a micro-applicator on the thorax, between the legs: 200 nL of drug per female mosquito, with different concentrations of the drug; 10 mosquitos were treated together per concentration per replicate, and put together in a small container with free access to sweet water. Mortality, i.e. no visible movement, was assessed 24 hours after treatment. Every compound was assessed on at least 3 different cohorts of mosquitoes, and the LD50 values and slopes were determined with Probit analysis, corrected with Abbott's formula.

[5] = test system: Anopheles gambiae G3 sensitive strain; assay: Topical toxicity (24 hour mortality), An. gambiae G3; format: in vivo; conditions: topical application, 24 h mortality, female adults, susceptible strain G3
Protocol: as §1, §2

[6] = screened at 100 μg/cm^2, 24 h, strain not given

CC1(C)[C@H](C=C(Cl)Cl)[C@H]1C(=O)Nc1cc(F)c(F)c(F)c1 [GMR148]
1 h % Repellency, 100 μg/cm^2 [1]: 12% | mortality at 100 µg/cm2 [2]: 6%

C=CC(=O)Nc1ccccc1NC(=O)C=C [GMR024]
1 h % Repellency, 100 μg/cm^2 [1]: 0% | vapor repellency / mortality, statement in words (Example 8) [1]: reduced repellency and poor toxicity | mortality at 100 µg/cm2 [2]: 3%

CCCCCCCCCCC(=O)Nc1ccccc1C(F)(F)F [MTFI-2-1F]
1 h % Repellency, 100 μg/cm^2 [1]: 6% | mortality at 100 µg/cm2 [2]: 0%

O=C(Nc1cc(F)c(F)c(F)c1F)C(F)F [MTFI-5-4A]
1 h % Repellency, 100 μg/cm^2 [1]: 68% | mortality at 100 µg/cm2 [2]: 0%

CC(=O)Nc1c(Cl)cncc1Cl [GMR130]
1 h % Repellency, 100 μg/cm^2 [1]: 34% | mortality at 100 µg/cm2 [2]: 81%

O=C(CC1CC1)Nc1ccccc1C(F)(F)F [MTFI-5-5C]
1 h Repellency EC50, μg/cm^2 [1]: 34 μg/cm^2 | 1 h % Repellency, 100 μg/cm^2 [1]: 82% | 24 h % Mortality, 100 μg/cm^2 [3, 6]: 0%

O=C(Nc1cc(F)c(F)c(F)c1)C(F)(F)C(F)(F)F [GMR135]
Ae. aegypti OR LD50 [4]: 1792 ng/mg | 1 h Repellency EC50, μg/cm^2 [1]: 22.1 μg/cm^2 | 1 h % Repellency, 100 μg/cm^2 [1]: 74% | 24 h LC50, μg/cm^2 ([3]; 24 h, LC50 (OR)): 21.6 μg/cm^2 | 24 h % Mortality, 100 μg/cm^2 [3, 6]: 100%

Cc1ccccc1C(=O)Nc1cc(C(F)(F)F)cc(C(F)(F)F)c1 [MTFI-3-1E]
1 h % Repellency, 100 μg/cm^2 [1]: 6% | vapor repellency / mortality, statement in words (Example 8) [1]: poor results | mortality at 100 µg/cm2 [2]: 7%

C=CC(=O)Nc1ccccc1N [GMR022]
1 h % Repellency, 100 μg/cm^2 [1]: −8% | 24 h % Mortality, 100 μg/cm^2 [3, 6]: 16%

CC(SC(F)(F)F)C(=O)Nc1ccc(F)cc1 (centres unmarked) [GMR197]
1 h % Repellency, 100 μg/cm^2 [1]: 30% | mortality at 100 µg/cm2 [2]: 0%

CCCC(=O)Nc1cc(F)c(F)c(F)c1 [GMR144]
1 h % Repellency, 100 μg/cm^2 [1]: 62% | 24 h % Mortality, 100 μg/cm^2 [3, 6]: 38%

CCCCC(=O)Nc1cccc(OC(F)(F)F)c1 [MTFI-5-9A]
1 h % Repellency, 100 μg/cm^2 [1]: 50% | 24 h % Mortality, 100 μg/cm^2 [3, 6]: 0%

O=C(Nc1cc(F)c(F)c(F)c1F)C(F)(F)C(F)(F)C(F)(F)F [MTFI-5-4E]
1 h % Repellency, 100 μg/cm^2 [1]: 56% | mortality at 100 µg/cm2 [2]: 6%

O=C(Nc1cc(C(F)(F)F)cc(C(F)(F)F)c1)C(F)(F)F [MTFI-3-1G]
knockdown in 1 hr repellency test (XXkd = number of insects incapacitated out of 16 females) [1]: 3 | 24 h % Mortality, 100 μg/cm^2 ([3]; in vivo): 100% | 24 h LC50, μg/cm^2 ([3]; in vivo): 16 μg/cm^2

CCCCC(=O)Nc1ccccc1OC(F)(F)F [MTFI-5-8B]
1 h Repellency EC50, μg/cm^2 [1]: 11 μg/cm^2 | 1 h % Repellency, 100 μg/cm^2 [1]: 96% | mortality at 100 µg/cm2 [2]: 13%

O=S(=O)(Nc1c(Cl)cc(C(F)(F)F)cc1Cl)C(F)(F)F [MTFI-5-10A]
1 h % Repellency, 100 μg/cm^2 [1]: 0% | mortality at 100 µg/cm2 [2]: 0%

CCC(=O)Nc1cccc(OC(F)(F)F)c1 [GMR160]
1 h Repellency EC50, μg/cm^2 [1]: 123 μg/cm^2 | 1 h % Repellency, 100 μg/cm^2 [1]: 42% | mortality at 100 µg/cm2 [2]: 16%

O=C(CCC1CCCCC1)Nc1ccccc1C(F)(F)F [MTFI-3-2F]
1 h % Repellency, 100 μg/cm^2 [1]: 18% | 24 h % Mortality, 100 μg/cm^2 [3, 6]: 25%

CCCC(=O)Nc1c(Cl)cncc1Cl [GMR132]
1 h % Repellency, 100 μg/cm^2 [1]: 4% | mortality at 100 µg/cm2 [2]: 28%

COCc1c(F)c(F)c(COC(=O)[C@@H]2[C@@H](C=C(Cl)Cl)C2(C)C)c(F)c1F [GMR146]
knockdown in 1 hr repellency test (XXkd = number of insects incapacitated out of 16 females) [1]: 15 | 24 h % Mortality, 100 μg/cm^2 ([3]; in vivo): 100% | 24 h LC50, μg/cm^2 ([3]; in vivo): 1 μg/cm^2

CC(=O)Nc1ccccc1C(F)(F)F [MTFI-3-2A]
1 h % Repellency, 100 μg/cm^2 [1]: 80% | mortality at 100 µg/cm2 [2]: 22%

CC(C)(C)c1cccc(NC(=O)CCl)c1 [compound 1]
1h % repellency ([1]; Table 3B, Screened at μg/cm^2): 6% | 24h % mortality ([3]; Table 3B, Screened at μg/cm^2): 0%

O=C(Nc1cccc(C(F)(F)F)c1)c1c(F)c(F)c(F)c(F)c1F [MT2018-0316-01]
1 h % Repellency, 100 μg/cm^2 [1]: 24% | vapor repellency / mortality, statement in words (Example 8) [1]: poor results | mortality at 100 µg/cm2 [2]: 0%

CC(=O)Nc1cc(F)c(F)c(F)c1 [GMR142]
1 h % Repellency, 100 μg/cm^2 [1]: 50% | mortality at 100 µg/cm2 [2]: 66%

O=C(CCl)Nc1cccc(C(F)(F)F)c1 [MTFI-2-2A]
1 h % Repellency, 100 μg/cm^2 [1]: 50% | 24 h % Mortality, 100 μg/cm^2 [3, 6]: 3%

CC(C)(C)c1cccc(NC(=O)CCl)c1 [MTFI-5-7A]
1 h % Repellency, 100 μg/cm^2 [1]: 6% | 24 h % Mortality, 100 μg/cm^2 [3, 6]: 0%

O=C(CBr)Nc1ccccc1C(F)(F)F [MTFI-5-5E]
1 h % Repellency, 100 μg/cm^2 [1]: 62% | mortality at 100 µg/cm2 [2]: 60%

CN(C(=O)C(F)(F)C(F)(F)OC(F)(F)F)c1cc(Cl)nc(Cl)c1 [GMR106]
Ae. aegypti OR LD50 [4]: 846 ng/mg | knockdown in 1 hr repellency test (XXkd = number of insects incapacitated out of 16 females) [1]: 2 | An. gambiae G3 LD50 [5]: >1000 ng/mg | 24 h % Mortality, 100 μg/cm^2 ([3]; in vivo): 100%

CCC(=O)Nc1cc(F)c(F)c(F)c1 [GMR143]
1 h Repellency EC50, μg/cm^2 [1]: 23 μg/cm^2 | 1 h % Repellency, 100 μg/cm^2 [1]: 88% | 24 h LC50, μg/cm^2 ([3]; 24 h, LC50 (OR)): 95 μg/cm^2 | 24 h % Mortality, 100 μg/cm^2 [3, 6]: 53%

C=CCCCC(=O)Nc1cc(C(F)(F)F)cc(C(F)(F)F)c1 [MTFI-3-1C]
1 h % Repellency, 100 μg/cm^2 [1]: 38% | 24 h % Mortality, 100 μg/cm^2 [3, 6]: 0%

CN(C(=O)C(F)(F)C(F)(F)OC(F)(F)F)c1cc(F)c(F)c(F)c1 [GMR114]
1 h % Repellency, 100 μg/cm^2 [1]: 0% | mortality at 100 µg/cm2 [2]: 6%

O=C(CC1CC1)Nc1cccc(C(F)(F)F)c1 [MTFI-5-6C]
1 h % Repellency, 100 μg/cm^2 [1]: 50% | mortality at 100 µg/cm2 [2]: 0%

O=C(c1c(F)c(F)c(F)c(F)c1F)n1nnc2ccccc21 [MT2018-0314-01]
1 h % Repellency, 100 μg/cm^2 [1]: 32% | mortality at 100 µg/cm2 [2]: 0%

C=CCCC(=O)Nc1ccccc1C(F)(F)F [MTFI-5-5D]
1 h % Repellency, 100 μg/cm^2 [1]: 56% | mortality at 100 µg/cm2 [2]: 6%

CCOC(=O)Nc1ccccc1C(F)(F)F [GMR020]
1 h % Repellency, 100 μg/cm^2 [1]: 16% | 24 h % Mortality, 100 μg/cm^2 [3, 6]: 9%

O=C(Cc1c(F)c(F)c(F)c(F)c1F)n1nnc2ccccc21 [MT2018-0314-02]
1 h % Repellency, 100 μg/cm^2 [1]: 6% | mortality at 100 µg/cm2 [2]: 0%

CCCCC(=O)Nc1ccccc1CCCC [MTFI-5-8A]
1 h % Repellency, 100 μg/cm^2 [1]: 38% | mortality at 100 µg/cm2 [2]: 6%

O=C(Nc1ccc(F)cc1)C(F)(F)Sc1ccc(F)cc1 [GMR196]
1 h % Repellency, 100 μg/cm^2 [1]: 18% | mortality at 100 µg/cm2 [2]: 0%

O=C(Cc1c(F)c(F)c(F)c(F)c1F)Nc1cccc(C(F)(F)F)c1 [MT2018-0316-02]
1 h % Repellency, 100 μg/cm^2 [1]: 6% | mortality at 100 µg/cm2 [2]: 0%

C#C[C@@H]1[C@@H](C(=O)Nc2cc(F)cc(F)c2)C1(C)C [GMR180]
1 h % Repellency, 100 μg/cm^2 [1]: −24% | mortality at 100 µg/cm2 [2]: 14.3%

O=C(Nc1ccccc1C(F)(F)F)C(F)(F)C(F)(F)F [MTFI-2-1B]
1 h % Repellency, 100 μg/cm^2 [1]: 38% | mortality at 100 µg/cm2 [2]: 0%

O=C(CCSC(F)(F)F)Nc1ccc(F)cc1 [GMR198]
1 h % Repellency, 100 μg/cm^2 [1]: 8% | mortality at 100 µg/cm2 [2]: 0%

CN(C(=O)C(F)(F)C(F)(F)C(F)(F)F)c1cc(F)c(F)c(F)c1 [GMR113]
1 h % Repellency, 100 μg/cm^2 [1]: 0% | mortality at 100 µg/cm2 [2]: 6%
